Tests used:
[1] = biological target: T1, Tyrosine-protein kinase ZAP-70 (Homo sapiens) (UniProt P43403); assay: Selectivity interaction (KinomeScan (DiscoverX)) EUB0001049a ZAP70; settings: at 1 µM
T1 sequence (whole entry): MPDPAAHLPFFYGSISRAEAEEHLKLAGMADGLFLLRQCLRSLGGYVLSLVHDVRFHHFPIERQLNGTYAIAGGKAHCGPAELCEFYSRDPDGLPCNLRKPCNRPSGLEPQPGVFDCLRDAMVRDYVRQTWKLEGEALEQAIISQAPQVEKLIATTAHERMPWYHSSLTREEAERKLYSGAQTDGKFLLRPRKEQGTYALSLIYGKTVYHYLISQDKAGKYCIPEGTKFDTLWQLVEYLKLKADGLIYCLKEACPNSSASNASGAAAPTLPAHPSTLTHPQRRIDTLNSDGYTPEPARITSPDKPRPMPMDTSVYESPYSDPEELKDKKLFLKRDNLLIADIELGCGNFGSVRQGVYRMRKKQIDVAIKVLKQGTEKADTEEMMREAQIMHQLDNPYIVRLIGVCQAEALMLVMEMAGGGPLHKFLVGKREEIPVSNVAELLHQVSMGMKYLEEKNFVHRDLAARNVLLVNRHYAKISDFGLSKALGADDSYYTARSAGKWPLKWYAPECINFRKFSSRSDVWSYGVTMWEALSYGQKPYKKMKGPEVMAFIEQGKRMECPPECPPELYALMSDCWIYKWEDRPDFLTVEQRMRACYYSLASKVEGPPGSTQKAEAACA

[2] = biological target: Serine/threonine-protein kinase 10 (Homo sapiens) (UniProt O94804); assay: Selectivity interaction (ActivX KiNativ screen (kinase selectivity in THP-1 cell lysates)) EUB0000639a STK10; type: subcellular; settings: lysate
[3] = biological target: Phosphatidylinositol 4-kinase alpha (Homo sapiens, UniProt P42356); assay: Selectivity interaction (Kinase panel (Invitrogen)) EUB0000639a PI4KA; settings: at 200 nM
[4] = biological target: Tyrosine-protein kinase Fes/Fps (Homo sapiens) (UniProt P07332); assay: Selectivity interaction (KinomeScan (DiscoverX)) EUB0000092b FES; settings: at 10 µM
[5] = biological target: T2, Inhibitor of nuclear factor kappa-B kinase subunit alpha (Homo sapiens) (UniProt O15111)
T2 sequence (whole entry): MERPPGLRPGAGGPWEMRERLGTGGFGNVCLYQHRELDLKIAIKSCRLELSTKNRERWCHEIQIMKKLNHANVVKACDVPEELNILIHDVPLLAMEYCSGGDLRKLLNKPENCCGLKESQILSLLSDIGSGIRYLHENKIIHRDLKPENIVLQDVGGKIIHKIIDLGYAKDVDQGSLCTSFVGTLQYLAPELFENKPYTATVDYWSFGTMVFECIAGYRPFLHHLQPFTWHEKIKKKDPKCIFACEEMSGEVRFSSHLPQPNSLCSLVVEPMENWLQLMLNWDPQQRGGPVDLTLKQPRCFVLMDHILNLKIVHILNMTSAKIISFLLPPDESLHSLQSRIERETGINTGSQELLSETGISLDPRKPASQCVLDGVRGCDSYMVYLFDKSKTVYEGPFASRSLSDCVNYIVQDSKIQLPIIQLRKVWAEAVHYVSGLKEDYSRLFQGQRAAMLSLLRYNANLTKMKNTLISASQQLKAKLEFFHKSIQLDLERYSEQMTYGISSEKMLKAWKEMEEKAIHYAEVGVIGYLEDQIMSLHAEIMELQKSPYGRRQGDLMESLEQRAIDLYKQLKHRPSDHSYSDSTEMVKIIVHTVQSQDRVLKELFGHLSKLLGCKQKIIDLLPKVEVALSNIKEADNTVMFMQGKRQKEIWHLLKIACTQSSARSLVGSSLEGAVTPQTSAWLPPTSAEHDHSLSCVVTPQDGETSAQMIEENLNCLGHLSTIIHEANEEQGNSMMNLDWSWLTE

[6] = biological target: Serine/threonine-protein kinase SMG1 (Homo sapiens) (UniProt Q96Q15); assay: Selectivity interaction (ActivX KiNativ screen (ex vivo kinase selectivity in human PBMCs)) EUB0001619a SMG1; type: cell-based; settings: PBMC, at 1 µM
[7] = biological target: T3, cGMP-dependent protein kinase 1 (Homo sapiens) (UniProt Q13976); assay: Selectivity interaction (KinomeScan (DiscoverX)) EUB0001619a PRKG1; settings: at 1 µM
T3 sequence (whole entry): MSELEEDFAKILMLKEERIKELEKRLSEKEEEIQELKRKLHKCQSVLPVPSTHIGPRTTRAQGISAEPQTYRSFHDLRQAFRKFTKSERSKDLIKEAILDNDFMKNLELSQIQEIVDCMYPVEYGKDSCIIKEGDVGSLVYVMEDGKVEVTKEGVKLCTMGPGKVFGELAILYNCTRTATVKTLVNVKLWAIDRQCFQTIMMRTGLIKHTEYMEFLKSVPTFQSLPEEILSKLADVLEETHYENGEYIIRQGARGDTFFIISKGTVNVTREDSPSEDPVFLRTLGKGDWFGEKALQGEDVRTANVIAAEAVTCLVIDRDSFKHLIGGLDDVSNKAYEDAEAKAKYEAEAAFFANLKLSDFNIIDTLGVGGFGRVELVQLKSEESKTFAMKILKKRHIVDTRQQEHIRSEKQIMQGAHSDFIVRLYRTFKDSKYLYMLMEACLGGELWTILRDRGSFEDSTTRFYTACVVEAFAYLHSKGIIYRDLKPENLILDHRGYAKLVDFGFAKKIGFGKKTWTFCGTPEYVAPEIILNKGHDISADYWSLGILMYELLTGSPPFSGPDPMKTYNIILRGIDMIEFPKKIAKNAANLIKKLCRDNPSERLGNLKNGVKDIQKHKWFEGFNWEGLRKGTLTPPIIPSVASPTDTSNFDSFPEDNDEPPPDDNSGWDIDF

[8] = biological target: Vascular endothelial growth factor receptor 1 (Homo sapiens) (UniProt P17948); assay: Selectivity interaction (KinomeScan (DiscoverX)) EUB0000695a FLT1; settings: at 100 nM

Chain of Serine/threonine-protein kinase 10 (Homo sapiens) (O94804 whole entry, looked up): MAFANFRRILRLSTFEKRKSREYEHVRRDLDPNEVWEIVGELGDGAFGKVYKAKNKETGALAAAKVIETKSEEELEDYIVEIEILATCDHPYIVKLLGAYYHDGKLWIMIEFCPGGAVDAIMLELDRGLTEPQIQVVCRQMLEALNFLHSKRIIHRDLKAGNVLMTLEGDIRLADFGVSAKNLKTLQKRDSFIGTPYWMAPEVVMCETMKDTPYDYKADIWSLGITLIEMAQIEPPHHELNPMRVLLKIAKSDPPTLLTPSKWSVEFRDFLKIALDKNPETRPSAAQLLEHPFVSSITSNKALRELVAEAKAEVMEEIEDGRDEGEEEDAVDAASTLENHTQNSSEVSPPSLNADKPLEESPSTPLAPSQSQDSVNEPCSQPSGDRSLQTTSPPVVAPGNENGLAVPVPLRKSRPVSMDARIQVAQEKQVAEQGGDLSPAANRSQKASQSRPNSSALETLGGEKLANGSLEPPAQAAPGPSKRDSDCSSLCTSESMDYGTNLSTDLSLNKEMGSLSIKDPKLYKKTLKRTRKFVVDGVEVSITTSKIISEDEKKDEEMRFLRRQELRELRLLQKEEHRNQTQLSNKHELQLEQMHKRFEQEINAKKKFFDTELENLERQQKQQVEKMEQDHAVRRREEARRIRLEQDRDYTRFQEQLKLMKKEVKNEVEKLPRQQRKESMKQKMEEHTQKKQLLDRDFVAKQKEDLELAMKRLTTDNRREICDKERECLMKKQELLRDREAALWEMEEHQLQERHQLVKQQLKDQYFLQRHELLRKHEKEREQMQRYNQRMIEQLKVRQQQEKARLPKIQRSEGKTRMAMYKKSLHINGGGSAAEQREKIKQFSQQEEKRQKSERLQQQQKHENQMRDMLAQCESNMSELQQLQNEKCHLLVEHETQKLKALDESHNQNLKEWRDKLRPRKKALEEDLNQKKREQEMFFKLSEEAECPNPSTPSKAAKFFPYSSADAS
Chain of Phosphatidylinositol 4-kinase alpha (P42356 whole entry, looked up): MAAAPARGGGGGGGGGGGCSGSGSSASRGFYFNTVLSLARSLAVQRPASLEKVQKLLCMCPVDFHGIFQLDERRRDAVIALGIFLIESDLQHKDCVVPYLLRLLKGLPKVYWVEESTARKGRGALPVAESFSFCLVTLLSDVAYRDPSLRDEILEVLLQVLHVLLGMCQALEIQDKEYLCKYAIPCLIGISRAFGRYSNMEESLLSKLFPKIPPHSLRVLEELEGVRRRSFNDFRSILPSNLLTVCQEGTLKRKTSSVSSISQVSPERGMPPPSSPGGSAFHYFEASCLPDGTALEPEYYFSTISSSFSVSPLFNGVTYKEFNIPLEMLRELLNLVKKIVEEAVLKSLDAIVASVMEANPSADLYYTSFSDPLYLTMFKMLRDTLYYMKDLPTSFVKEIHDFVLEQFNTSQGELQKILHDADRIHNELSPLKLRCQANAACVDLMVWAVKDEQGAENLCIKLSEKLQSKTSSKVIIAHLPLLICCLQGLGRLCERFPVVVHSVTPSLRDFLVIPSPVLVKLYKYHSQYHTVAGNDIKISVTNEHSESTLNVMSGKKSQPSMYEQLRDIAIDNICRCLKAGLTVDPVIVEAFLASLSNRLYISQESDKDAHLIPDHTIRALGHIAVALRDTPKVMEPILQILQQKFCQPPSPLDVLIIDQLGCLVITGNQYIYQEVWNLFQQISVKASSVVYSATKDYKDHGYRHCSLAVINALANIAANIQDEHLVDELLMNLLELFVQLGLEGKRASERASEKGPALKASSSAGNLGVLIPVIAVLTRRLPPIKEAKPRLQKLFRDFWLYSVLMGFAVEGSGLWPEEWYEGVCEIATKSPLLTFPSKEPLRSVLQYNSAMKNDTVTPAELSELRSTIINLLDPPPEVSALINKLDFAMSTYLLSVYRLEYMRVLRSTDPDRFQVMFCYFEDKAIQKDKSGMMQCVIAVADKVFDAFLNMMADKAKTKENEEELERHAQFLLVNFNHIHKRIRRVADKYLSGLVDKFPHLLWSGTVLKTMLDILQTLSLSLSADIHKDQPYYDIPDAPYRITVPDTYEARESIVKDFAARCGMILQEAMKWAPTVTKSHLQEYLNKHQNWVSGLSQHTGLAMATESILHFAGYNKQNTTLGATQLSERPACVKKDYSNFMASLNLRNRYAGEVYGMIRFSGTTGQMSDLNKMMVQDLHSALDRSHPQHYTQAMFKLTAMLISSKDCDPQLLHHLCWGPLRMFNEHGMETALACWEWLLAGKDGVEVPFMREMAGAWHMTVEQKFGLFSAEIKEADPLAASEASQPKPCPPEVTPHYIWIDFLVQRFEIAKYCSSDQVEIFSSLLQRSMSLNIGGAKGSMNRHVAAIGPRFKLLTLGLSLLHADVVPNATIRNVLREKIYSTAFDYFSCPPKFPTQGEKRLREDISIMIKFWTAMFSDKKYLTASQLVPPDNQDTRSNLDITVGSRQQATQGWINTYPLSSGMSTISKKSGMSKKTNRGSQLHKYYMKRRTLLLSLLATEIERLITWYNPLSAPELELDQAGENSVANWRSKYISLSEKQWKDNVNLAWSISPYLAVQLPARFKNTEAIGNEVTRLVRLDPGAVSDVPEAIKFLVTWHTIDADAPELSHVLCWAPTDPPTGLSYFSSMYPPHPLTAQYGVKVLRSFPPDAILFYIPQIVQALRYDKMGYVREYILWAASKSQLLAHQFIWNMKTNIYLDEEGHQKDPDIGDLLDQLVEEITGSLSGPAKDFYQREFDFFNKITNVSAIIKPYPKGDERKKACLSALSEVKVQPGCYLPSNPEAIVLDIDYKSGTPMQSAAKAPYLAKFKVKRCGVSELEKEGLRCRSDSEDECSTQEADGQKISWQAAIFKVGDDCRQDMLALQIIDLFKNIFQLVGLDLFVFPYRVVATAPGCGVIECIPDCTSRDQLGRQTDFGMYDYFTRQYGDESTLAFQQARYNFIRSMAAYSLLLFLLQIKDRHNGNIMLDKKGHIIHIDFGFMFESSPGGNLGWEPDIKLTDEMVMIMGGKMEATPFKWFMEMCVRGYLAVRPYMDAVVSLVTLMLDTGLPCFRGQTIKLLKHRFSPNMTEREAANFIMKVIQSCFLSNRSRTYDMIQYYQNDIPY
Chain of Tyrosine-protein kinase Fes/Fps (Homo sapiens) (P07332 whole entry): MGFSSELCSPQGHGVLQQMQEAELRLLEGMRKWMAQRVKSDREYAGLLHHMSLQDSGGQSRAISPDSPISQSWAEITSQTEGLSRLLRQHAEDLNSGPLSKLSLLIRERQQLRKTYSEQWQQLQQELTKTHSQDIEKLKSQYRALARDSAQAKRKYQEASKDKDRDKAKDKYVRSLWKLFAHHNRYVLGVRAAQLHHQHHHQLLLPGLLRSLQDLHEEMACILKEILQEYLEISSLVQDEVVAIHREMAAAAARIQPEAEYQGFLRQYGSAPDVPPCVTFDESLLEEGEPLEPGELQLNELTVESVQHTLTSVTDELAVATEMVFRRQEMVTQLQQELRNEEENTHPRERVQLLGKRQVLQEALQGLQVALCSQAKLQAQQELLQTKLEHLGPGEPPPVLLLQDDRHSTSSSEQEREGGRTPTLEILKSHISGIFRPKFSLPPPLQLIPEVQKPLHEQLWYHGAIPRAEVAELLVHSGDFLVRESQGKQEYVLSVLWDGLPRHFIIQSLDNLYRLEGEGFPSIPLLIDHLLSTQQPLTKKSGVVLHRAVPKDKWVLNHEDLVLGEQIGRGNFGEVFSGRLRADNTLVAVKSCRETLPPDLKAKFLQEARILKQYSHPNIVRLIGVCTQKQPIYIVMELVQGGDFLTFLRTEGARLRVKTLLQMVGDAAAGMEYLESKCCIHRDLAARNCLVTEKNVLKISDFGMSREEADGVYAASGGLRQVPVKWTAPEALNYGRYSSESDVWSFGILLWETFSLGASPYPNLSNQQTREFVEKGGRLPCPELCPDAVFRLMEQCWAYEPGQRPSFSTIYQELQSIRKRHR

**Q.** How did the % of control [1] turn out when COc1cc(Nc2nc(C)cc(-c3cnn4nc(OC)ccc34)n2)cc(C(F)(F)F)c1 was run?
**A.** 95%

**Q.** For CC[C@@H]1[C@H](F)C(=O)N[C@@H]1COc1nccc2cc(C(N)=O)c(OC)cc12 [ZIMLOVISERTIB], which % of inhibition ([2]; at 0.01 µM) is on record?
**A.** -11.4%

**Q.** And the % of inhibition ([2]; at 0.04 µM)?
**A.** -6.2%

**Q.** And the % of inhibition ([2]; at 0.2 µM)?
**A.** -5.3%

**Q.** What about the % of inhibition ([2]; at 1 µM) of the same molecule?
**A.** 2.8%

**Q.** What about the % of inhibition ([2]; at 5 µM) of the same molecule?
**A.** -12.4%

**Q.** And the % of inhibition [3]?
**A.** -0.209%

**Q.** With CCC(=O)N1CCN(c2ccc(-n3c(=O)ccc4cnc5ccc(-c6cnc7ccccc7c6)cc5c43)cc2C(F)(F)F)CC1 as the molecule, how does the % of control [4] read?
**A.** 41%

**Q.** With Cc1cnc(Nc2ccc(F)cc2Cl)nc1-c1c[nH]c(C(=O)N[C@H](CO)c2cccc(Cl)c2)c1 as the molecule, how does the % of inhibition [5] read?
**A.** 0%

**Q.** With N#Cc1cccc(-c2c[nH]c3ncnc(N4CCOCC4)c23)c1 as the molecule, how does the % of inhibition [6] read?
**A.** 13%

**Q.** And the % of control [7]?
**A.** 99%

**Q.** Which % of control [8] does the source give for Cc1cc(F)c(C(=O)Nc2cccc(-c3nncn3C(C)C)n2)cc1-n1cnc(C2CC2)c1 here?
**A.** 100%

Reference: ChEMBL document CHEMBL5465560, “Selectivity Literature for EUbOPEN Chemogenomic Library” (2024)
